We go through four compounds from US8227431B2, “Nucleoside derivatives” (Hetero Drugs Limited, priority 2008, dated 2012).

Some results are limits rather than exact numbers.

Series [1] in a line: Cell viability assay (MTT). The format is cell-based. The settings on record: human, Supt-1 cells, Cell line Supt-1, about 14 hours incubation, read-out: Cytotoxicity concentration (CC50). How it is done: Reduction of 3-(4,5-dimethylthiozol-2-yl)-2,5-diphenyltetrazolium bromide (MTT, sigma) is chosen as an optimal mend point of cell viability measurement (Mosmann, 1983; Cole, 1986; alley et al., 1988). Cells (0.2×10^6 cells per well) were seeded in 96-well plates. Increasing concentrations of compound were added to the cells and incubated at 37° C. for about 14 hours in a CO2 Incubator with 5% CO2. The media was replaced with a fresh growth medium along with 20 μL of 5 mg/ml 3-(4,5-dimethylthiazol-2-yl)-2,5-diphenyltetrazolium bromide (MTT, Sigma). After incubation for about 4 hours in a humidified atmosphere, the media was removed and 200 μL of 0.1N acidic isopropyl alcohol was added to the wells to dissolve the MTT-formazan crystals. The absorbance was recorded at 570 nm, immediately after the development of purple colour. Each experiment was conducted in triplicate and the data are represented as average, with standard deviation. Percent viability of the cells was computed with reference to the absorbance of reduced MTT in the experiments conducted in absence of any compound. The above described examples were tested in the two biological assays as described above and some compounds were found following results as shown in table 2. Cell line Supt-1; Virus: HIV-1-93IN101

Series [2] relates to HIV-1-93IN101. As to the kind of experiment: P24 assay (viral p24 ELISA). The series is classed as cell-based. As to conditions: Cell line Supt-1, Virus HIV-1-93IN101; for IC50: Human immunodeficiency virus 1, SUP-T1, p24 ELISA about 72 hours post infection, read-out: Inhibitory concentration 50 (IC50). The method, then:
Viral p24 was measured after about 72 hours of post infection in presence of drugs using ABL p24 ELISA kit. 0.5 millions cells/well were taken into the 24 well plates and added increasing concentrations of drugs. 1 ng/ml of HIV-1 virus was added to each well and incubated for overnight at 37° C. (37° C. and 5% CO2). After about 16 hours incubation media was changed and added fresh media and cultured for about 72 hours. P24 was quantified at 4th day of post-infection using ABL kit according to manufacturer's instructions. The above described examples were tested in the two biological assays as described above and some compounds were found following results as shown in table 2. Cell line Supt-1; Virus: HIV-1-93IN101
(An ELISA detects its analyte on a solid surface through an enzyme-linked reagent.)

For `C[C@]1(F)[C@H](n2ccc(=O)[nH]c2=O)O[C@H](CO)[C@@]1(C)O` [Example 22, 1-((2R,4R)-3-fluoro-tetrahydro-4-hydroxy-5-(hydroxymethyl)-3,4-dimethylfuran-2-yl)pyrimidine-2,4(1H,3H)-dione], in series [1], the CC50 was more than 1000 µM. Moreover, in series [2], the “Therapeutic Index (TI): CC50/IC50” value is recorded as more than 1 and the IC50 was more than 1000 µM.
With `CC1(O)[C@@H](CO)OC(n2cnc3c(NC4CC4)ncnc32)[C@]1(C)F` (stereo partly drawn) [Example 16, (2R,4R)-5-(6-(cyclopropylamino)-9H-purin-9yl)-4-fluoro-tetrahydro-2-(hydroxymethyl)-3,4-dimethylfuran-3-ol], the CC50 in series [1] amounted to 424 µM. Further, in series [2], the “Therapeutic Index (TI): CC50/IC50” value is 1.4 and the IC50 was 300 µM.
In the case of `C[C@]1(F)C(n2cnc3c(N)ncnc32)O[C@H](CO)[C@]1(C)O` (stereo partly drawn) [Example 2A, (2R,3S,4R)-5-(6-amino-9H-purin-9-yl)-4-fluoro-tetrahydro-2-(hydroxymethyl)-3,4-dimethylfuran-3-ol], in series [1], the CC50 was more than 1000 µM. In addition, in series [2], the “Therapeutic Index (TI): CC50/IC50” value is listed as more than 1 and the IC50 is more than 1000 µM.
Regarding `C[C@]1(F)[C@H](n2ccc(N)nc2=O)O[C@H](CO)[C@@]1(C)O` [Example 23, 4-amino1-((2R,4R)-3-fluoro-tetrahydro-4-hydroxy-5-(hydroxymethyl)-3,4-dimethylfuran-2-yl)pyrimidin-2(1H)-one], the CC50 in series [1] is more than 1000 µM. Also, in series [2], the “Therapeutic Index (TI): CC50/IC50” value was more than 1 and the IC50 was more than 1000 µM.
